Patent US12016353B2, “Compositions and methods for aquaculturing” (The State of Israel, Ministry of Agriculture & Rural …, priority 2017, dated 2024)

Tests used:
Format in all cases: in vivo, Sparus aurata
[1] = tested on: proximal intestine epithelium; experiment: Histological analysis of proximal intestine cross sections of sea bream (inner/outer perimeter ratio); conditions: 1.6% sodium butyrate, independent of dietary protein level, P<0.001, FIG. 9
Procedure: During the 13 week trial, fish were weighed approximately every two weeks. The data were used to calculate growth rates and to adjust the daily rations of feed. At the end of the trial, 6 fish from each tank were sampled for calculating gut index and extracting their proximal intestine total RNA. Two other fish were sampled for histology and body composition. All sampling procedures were performed as described.
Fish were euthanized with an overdose of MS2-22 (Sigma Aldrich, USA) followed by a swift decapitation and then dissected for the removal of their gastrointestinal tract. For total RNA, the 1st segment of the proximal intestine (approx. 1 cm) was cut, immediately frozen and stored at −80° C. until RNA extraction. […] For each fish, gut index was calculated using the following formula: Gut index=100×Body weight (g)/(intestine length (mm))^3.
Standard protocol for histological analysis was implemented (Grate et al., 2003). […] Intestinal cross sections were photographed under a stereo zoom microscope (Axio Zoom.V16, Zeiss, Germany) and the inner and outer perimeter (mm) of the sections were measured using ImageJ software (imagej(dot)nih(dot)gov/ij/). […] The calculated ratio (inner perimeter/outer perimeter) for each section was then averaged for each slide/sample and analyzed for differences between treatments.

PepT1 [2] = experiment: PepT1 pattern of expression during the day in gilthead sea bream (10 day trial); conditions: diet with 0.8% sodium butyrate and 1% taurine versus control, FIG. 4
Procedure: (§1) The experimental set up consisted of 200 L circular tanks in a flow through, filtered (10 μm) ambient seawater (40‰) system under a natural photoperiod of about 12 h/12 h (dark/light) where the water temperature ranged between 24.8-25.4° C. Experimental diets were offered to the fish twice a day (9:00; 14:00).
Fish having an average weight of 14.49±0.2 g (mean±SEM) were stocked in […] at a density of 30 fish tank^−1 with 5 replicate tanks (assigned as A-E) dietary treatment^−1. During the 10 day trial, fish were offered the experimental diets (Table 4) with 1% taurine and with 0 and 0.8% of sodium butyrate (Sigma Aldrich, USA). […]
Fish were euthanized with an overdose of MS2-22 (Sigma Aldrich, USA) followed by a swift decapitation and then dissected for the removal of their gastrointestinal tract. […] For each fish, gut index was calculated using the following formula: Gut index=100×Body weight (g)/(intestine length (mm))^3.
Total RNA extraction from samples of the proximal intestine was carried out using BioTri reagent (Biolab, Israel) according to the manufacturer's instructions. […] In each sample the 260/280 ratio, 260/230 ratio and RNA concentration were obtained by plate reader and Gen5 software (Synergy HT, BioTek, USA). For each RNA extraction procedure, the integrity of the extracted RNA was evaluated by electrophoresis on 1.2% agarose gel stained with GelRed (Biotium, USA). […]

PepT1 [3] = experiment: Sustained effect of dietary butyrate on PepT1 mRNA expression in gilthead sea bream; conditions: for PepT1 transcription levels after butyrate feeding had ceased: 6 days after feeding butyrate ceased
Procedure: as §1
For determining whether (1) an effect of dietary butyrate on PepT1 transcriptional level is sustained after its supplementation has stopped and (2) to investigate an effect of dietary butyrate on Cdx1b expression. To this end another study was carried out. In this trial, fish having an average weight of 27.14±0.47 g (mean±SEM) were stocked at a density of 30 fish per tank with two replicate tanks per treatment. Fish were fed with the experimental diets (Table 4) including 1% taurine and 0, 0.8 and 1.6% of sodium butyrate for 8 days before its supplementation was stopped and all of the dietary groups started receiving the 0% sodium butyrate containing diet. Four fish from each tank (8 fish per dietary treatment) were sampled for their proximal intestine total RNA at days 9, 12 and 15 of the trial.
Fish were euthanized with an overdose of MS2-22 (Sigma Aldrich, USA) followed by a swift decapitation and then dissected for the removal of their gastrointestinal tract. For total RNA, the 1st segment of the proximal intestine (approx. 1 cm) was cut, immediately frozen and stored at −80° C. until RNA extraction. For histology, pieces of the proximal intestine (approx. 0.6 cm) were sampled, placed in 15 ml Falcon tubes containing 10% neutral buffered formalin (NBF) and stored at room temperature until processed. For immunohistochemistry (IHC-P) staining, pieces of proximal intestine (approx. 0.6 cm) were sampled, placed in 1.7 ml microcentrifuge tubes containing 4% paraformaldehyde (PFA) and stored at 4° C. for overnight fixation. After fixation, the intestinal samples were rinsed twice and washed three times (10 min each) with PBST 0.8% (PBS with 0.8% Triton x-100, Sigma Aldrich, USA). Following this, the samples were gradually dehydrated by one 5 min wash with 50% methanol in PBST followed by three more washings with 100% methanol and stored in 100% methanol at −20° C. until carrying out the staining procedure. After the removal of the gastrointestinal tract, the remaining carcasses of sampled fish were put into nylon bags and stored at −20° C. until proximate analysis. In order to calculate the gut index (GI), fish were weighed prior to the removal of their gastrointestinal tract. The intestines were separated from the stomach and pyloric caeca and then aligned, by forceps, against a ruler for measuring their length (mm). For each fish, gut index was calculated using the following formula: Gut index=100×Body weight (g)/(intestine length (mm))^3.
(§2) Total RNA extraction from samples of the proximal intestine was carried out using BioTri reagent (Biolab, Israel) according to the manufacturer's instructions. For determining total RNA quality and concentration, 2 μl from each sample diluted with 18 μl of DEPC treated water (1:10) were loaded onto a 384 well microplate (Greiner Bio-One, Austria). In each sample the 260/280 ratio, 260/230 ratio and RNA concentration were obtained by plate reader and Gen5 software (Synergy HT, BioTek, USA). For each RNA extraction procedure, the integrity of the extracted RNA was evaluated by electrophoresis on 1.2% agarose gel stained with GelRed (Biotium, USA). […]

PCNA = PCNA mRNA expression in sea bream proximal intestine (intestinal epithelial cell proliferation); conditions: 0.8% sodium butyrate diet for 9 days, 1.5 h after feeding, P<0.05, FIG. 6
Procedure: Fish having an average weight of 14.49±0.2 g (mean±SEM) were stocked in 15 tanks at a density of 30 fish tank^−1 with 5 replicate tanks (assigned as A-E) dietary treatment^−1. […]
as §2
Specific real-time PCR primers (Table 6) were designed for amplifying the sea bream PepT1 (accession no. GU733710.1), PCNA (accession no. CX734891.1), CCK, Cdx1b and β-actin (accession no. AY362763.1) transcripts. Quantification of target gene transcripts of different treatments was achieved by PCR reaction mix (10 μl) containing SYBR Green dye (Quanta, Perfecta; SYBR Green FastMix, Low ROX; 95074-012), template cDNA and 500 nM of target specific primers in a quantitative PCR system (Applied Biosystems, 7500 Fast Real Time PCR System). […]

CCCC(=O)[O-].[Na+] [sodium butyrate]
expansion of the inner to outer perimeter ratio of the proximal intestine [1]: approximately 30%
PepT1 expression prior to the morning feeding (PepT1 [2]): significantly (P<0.01) higher PepT1 expression
PepT1 transcription levels after butyrate feeding had ceased (PepT1 [3]; 0.8% butyrate for 8 days, FIG. 5B): remained higher than the control
PepT1 transcription (PepT1 [3]; 0.8% butyrate in diet for 8 days versus control, FIG. 5A): significantly (P<0.001) increased
PepT1 transcription levels after butyrate feeding had ceased (PepT1 [3]; 1.6% butyrate for 8 days, FIG. 5C): remained higher than the control
PepT1 transcription (PepT1 [3]; 1.6% butyrate in diet for 8 days versus control, FIG. 5A): significantly (P<0.001) increased
PepT1 transcription, increase over control (PepT1 [3]; 1.6% butyrate in diet for 8 days, FIG. 5A): more than 2 fold
PCNA expression relative to control (PCNA): more than 2 fold
